Assay results from US20260287579A1, “METHOD FOR NON-INVASIVE HYPOXIA DETECTION” (BioVentures, LLC, priority 2023, published 2026).

Key:
[1] = system: 4T1 murine breast cancer cells; experiment: Bead-assisted flow cytometry for CD81+/Pimo+ vesicles from hypoxic or oxic cell cultures; format: cell-based; conditions: 100 μM pimonidazole, 24 hours, 0.5% oxygen vs regular air
Method: Isolating exosome from cell culture and Flow Cytometry analysis of isolated exosomes utilizing bead-assisted assay (FIGS. 10A-10B): 4T1 murine breast cancer cells were cultured in DMEM medium containing 10% Fetal Bovine Serum (FBS) at 37° C. in a humidified incubator with 5% CO2 and sub-cultured twice a week. For isolation of exosomes from 4T1 cultures, 1 million cells were plated in 10 cm plates and allowed to adhere overnight in the incubator. Cells were then washed with PBS, and the medium was changed to a medium containing 5% exosome-depleted FBS. Plates were grouped into four sets of five plates each. 100 μM pimonidazole was added to two sets, half of plates were incubated in a regular air incubator, and the other half in an incubator containing 0.5% Oxygen. After 24 hours, the medium was collected and subjected to sequential centrifugation at 1200, 3000, 10000, and 35000 rpm for 5, 15, 45 minutes, and 4 hours respectively. The final pellet was washed with PBS and centrifuged at 35000 rpm for 2 hours before being resuspended in 100 μl of PBS. The exosome amount was estimated using a BCA protein assay and the exosomes size was confirmed using a Nanoparticle Tracking Analyzer (NTA Instrument). […] Following the manufacture protocols, compensation beads were used to optimize fluorescence compensation settings and correct for spectral overlap between fluorophores. […]

[2] = system: exosomes isolated from hypoxic cells; experiment: Fluorescent plate reader detection of pimonidazole adducts in isolated exosomes with FITC anti-pimonidazole antibody; format: cell-based; conditions: FITC-labeled anti-pimonidazole antibody, plate reader 485/528 nm
From the text: FIGS. 10A-10B are charts showing results from a flow cytometry-based bead assay designed to allow conventional flow cytometers to assess the presence of various markers on exosome sized particles. This is accomplished by using beads of known size which are bound by exosomes if they have the marker (antibody target) in question. It is clear that exosomes derived from hypoxic cells have an augmented amount of pimonidazole adducts present. The inventors also tested for the general immunoreactivity of hypoxic-cell derived exosomes using a standard plate reader and a commercially available fluorescently conjugated anti-pimonidazole antibody. Briefly, isolated exosomes from cell culture medium from mouse serum samples were, suspended in 1% bovine serum albumin, and incubated with a fluorescently tagged anti-pimonidazole antibody. After a period of 2 hours or overnight, the exosomes were washed twice, resuspended in PBS and the fluorescent signal was determined using a Cytation 5 multi-mode plate reader.
Labeling exosomes with FITC-conjugated anti-pimonidazole antibody and quantifying the labeled exosomes'(FIG. 11): 10-40 μg of exosomes were utilized for antibody labeling in a 100 μl total volume containing 1% BSA as a blocking reagent. […] Fluorescence readings were obtained using a Cytation 5 plate reader at excitation/emission wavelengths of 485/528 nm (+/−20 nm).

O=[N+]([O-])c1nccn1CC(O)CN1CCCCC1 (centres unmarked) [pimonidazole]
enhancement in percent of vesicles labeled in hypoxic vs oxic conditions [1]: 4 fold
increase in fluorescence signal, exosomes from hypoxic cells vs cells grown in normal oxygen [2]: ~2.5 fold
